Laboratory results from PubChem BioAssay AID1919003 (Molecular Pharmacology Branch, DTP, NCI, 2023).

Tested on: 786-0 complex spheroids with HUVEC/MSC, growth % test/control
Assay: Anticancer human tumor 786-0 cell line growth inhibition [AhR];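 note: compound exposure lasted seven days before the read-out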
Settings: for IC50: curve of first compound; for viability, T/C: stronger effect = lower value
Method in brief: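 Agents were dosed in half-log steps down from roughly clinical Cmax, or from 10 microM where Cmax was unknown, alone and with AhR antagonists. Read-out: percent test/control growth of tumor spheroids containing HUVEC and MSC stromal cells.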

[1] = second compound 0.1 µM, first compound 0.000949 µM
[2] = second compound 0.1 µM, first compound 0.003 µM
[3] = second compound 0.1 µM, first compound 0.00949 µM
[4] = second compound 0.1 µM, first compound 0.03 µM
[5] = second compound 0.1 µM, first compound 0.0949 µM
[6] = second compound 0.1 µM, first compound 0.3 µM
[7] = second compound 0.316 µM, first compound 0.000949 µM
[8] = second compound 0.316 µM, first compound 0.003 µM
[9] = second compound 0.316 µM, first compound 0.00949 µM
[10] = second compound 0.316 µM, first compound 0.03 µM
[11] = second compound 0.316 µM, first compound 0.0949 µM
[12] = second compound 0.316 µM, first compound 0.3 µM
[13] = second compound 1 µM, first compound 0.000949 µM
[14] = second compound 1 µM, first compound 0.003 µM
[15] = second compound 1 µM, first compound 0.00949 µM
[16] = second compound 1 µM, first compound 0.03 µM
[17] = second compound 1 µM, first compound 0.0949 µM
[18] = second compound 1 µM, first compound 0.3 µM
[19] = second compound 3.16 µM, first compound 0.000949 µM
[20] = second compound 3.16 µM, first compound 0.003 µM
[21] = second compound 3.16 µM, first compound 0.00949 µM
[22] = second compound 3.16 µM, first compound 0.03 µM
[23] = second compound 3.16 µM, first compound 0.0949 µM
[24] = second compound 3.16 µM, first compound 0.3 µM
[25] = second compound 10 µM, first compound 0.000949 µM
[26] = second compound 10 µM, first compound 0.003 µM
[27] = second compound 10 µM, first compound 0.00949 µM
[28] = second compound 10 µM, first compound 0.03 µM
[29] = second compound 10 µM, first compound 0.0949 µM
[30] = second compound 10 µM, first compound 0.3 µM
[31] = second compound 0.1 µM, first compound 0.0316 µM
[32] = second compound 0.1 µM, first compound 0.1 µM
[33] = second compound 0.1 µM, first compound 0.316 µM
[34] = second compound 0.1 µM, first compound 1 µM
[35] = second compound 0.1 µM, first compound 3.16 µM
[36] = second compound 0.1 µM, first compound 10 µM
[37] = second compound 0.316 µM, first compound 0.0316 µM
[38] = second compound 0.316 µM, first compound 0.1 µM
[39] = second compound 0.316 µM, first compound 0.316 µM
[40] = second compound 0.316 µM, first compound 1 µM
[41] = second compound 0.316 µM, first compound 3.16 µM
[42] = second compound 0.316 µM, first compound 10 µM
[43] = second compound 1 µM, first compound 0.0316 µM
[44] = second compound 1 µM, first compound 0.1 µM
[45] = second compound 1 µM, first compound 0.316 µM
[46] = second compound 1 µM, first compound 1 µM
[47] = second compound 1 µM, first compound 3.16 µM
[48] = second compound 1 µM, first compound 10 µM
[49] = second compound 3.16 µM, first compound 0.0316 µM
[50] = second compound 3.16 µM, first compound 0.1 µM
[51] = second compound 3.16 µM, first compound 0.316 µM
[52] = second compound 3.16 µM, first compound 1 µM
[53] = second compound 3.16 µM, first compound 3.16 µM
[54] = second compound 3.16 µM, first compound 10 µM
[55] = second compound 10 µM, first compound 0.0316 µM
[56] = second compound 10 µM, first compound 0.1 µM
[57] = second compound 10 µM, first compound 0.316 µM
[58] = second compound 10 µM, first compound 1 µM
[59] = second compound 10 µM, first compound 3.16 µM
[60] = second compound 10 µM, first compound 10 µM

For `Nc1ncn(C2CC(O)C(CO)S2)c(=O)n1` (stereo not given) + Cc1cncc(-c2nc(NCCc3c[nH]c4ccccc34)c3ncn(C(C)C)c3n2)c1, the IC50 (second compound 0.1 µM) was greater than 300 nM, the IC50 (second compound 0.316 µM) was greater than 300 nM and the IC50 (second compound 1 µM) was greater than 300 nM. It also gave an IC50 (second compound 3.16 µM) of 22.3 nM, an IC50 (second compound 10 µM) of less than 0.949 nM and a viability, T/C [1] of 120%. For the same compound, the viability, T/C [2] was 123%, the viability, T/C [3] was 122% and the viability, T/C [4] was 118%. The viability, T/C [5] was 94.2%, the viability, T/C [6] was 82.7% and the viability, T/C [7] was 121%. For the same compound, the viability, T/C [8] was 117%, the viability, T/C [9] was 121% and the viability, T/C [10] was 110%. For the same compound, the viability, T/C [11] was 94.7%, the viability, T/C [12] was 79.3% and the viability, T/C [13] was 101%. The viability, T/C [14] was 102%, the viability, T/C [15] was 94.3% and the viability, T/C [16] was 90.3%. It also gave a viability, T/C [17] of 61.1%, a viability, T/C [18] of 57.6% and a viability, T/C [19] of 69.2%. It also gave a viability, T/C [20] of 65.2%, a viability, T/C [21] of 59.8% and a viability, T/C [22] of 46.6%. The viability, T/C [23] was 40.4%, the viability, T/C [24] was 39.9% and the viability, T/C [25] was 17.2%. It also gave a viability, T/C [26] of 14.9%, a viability, T/C [27] of 22% and a viability, T/C [28] of 15.6%. It also gave a viability, T/C [29] of 10.9% and a viability, T/C [30] of 9.94%.
`CCc1c2c(nc3ccc(O)cc13)-c1cc3c(c(=O)n1C2)COC(=O)[C@]3(O)CC` + CC(CO)NC(=O)c1cc(-c2ccc(Cl)cc2)nn(-c2cnn(C)c2)c1=O gave an IC50 (second compound 0.1 µM) of 5.22 nM, an IC50 (second compound 0.316 µM) of 4.94 nM and an IC50 (second compound 1 µM) of 4.22 nM. The IC50 (second compound 3.16 µM) was 3.06 nM, the IC50 (second compound 10 µM) was 2.22 nM and the viability, T/C [1] was 98.5%. The viability, T/C [2] was 82.1%, the viability, T/C [3] was 15.3% and the viability, T/C [4] was 5.93%. It also gave a viability, T/C [5] of 2.72%, a viability, T/C [6] of 2.09% and a viability, T/C [7] of 88%. It also gave a viability, T/C [8] of 75.5%, a viability, T/C [9] of 16.6% and a viability, T/C [10] of 5.34%. For the same compound, the viability, T/C [11] was 3.26%, the viability, T/C [12] was 2.5% and the viability, T/C [13] was 96.8%. The viability, T/C [14] was 65%, the viability, T/C [15] was 14.1% and the viability, T/C [16] was 6.51%. The viability, T/C [17] was 3.19%, the viability, T/C [18] was 2.39% and the viability, T/C [19] was 81.5%. It also gave a viability, T/C [20] of 50.7%, a viability, T/C [21] of 14.6% and a viability, T/C [22] of 5.63%. The viability, T/C [23] was 2.91%, the viability, T/C [24] was 2.49% and the viability, T/C [25] was 81.4%. For the same compound, the viability, T/C [26] was 39%, the viability, T/C [27] was 14% and the viability, T/C [28] was 6.45%. It also gave a viability, T/C [29] of 3.27% and a viability, T/C [30] of 2.66%.
`Nc1ccn(C2OC(CO)C(O)C2(F)F)c(=O)n1` (stereo not given) + Cc1ccccc1N=Nc1ccc(NC(=O)c2ccnn2C)c(C)c1 was tested, and the IC50 (second compound 0.1 µM) was less than 31.6 nM, the IC50 (second compound 0.316 µM) was less than 31.6 nM and the IC50 (second compound 1 µM) was less than 31.6 nM. The IC50 (second compound 3.16 µM) was less than 31.6 nM, the IC50 (second compound 10 µM) was less than 31.6 nM and the viability, T/C [31] was 8.08%. For the same compound, the viability, T/C [32] was 6.67%, the viability, T/C [33] was 7.73% and the viability, T/C [34] was 5.06%. The viability, T/C [35] was 7.17%, the viability, T/C [36] was 6.66% and the viability, T/C [37] was 7.8%. It also gave a viability, T/C [38] of 6.77%, a viability, T/C [39] of 5.95% and a viability, T/C [40] of 8.69%. The viability, T/C [41] was 7.54%, the viability, T/C [42] was 7.11% and the viability, T/C [43] was 6.79%. For the same compound, the viability, T/C [44] was 6.35%, the viability, T/C [45] was 7.35% and the viability, T/C [46] was 5.82%. It also gave a viability, T/C [47] of 7.07%, a viability, T/C [48] of 6.7% and a viability, T/C [49] of 7.91%. The viability, T/C [50] was 5.76%, the viability, T/C [51] was 6.46% and the viability, T/C [52] was 4.78%. The viability, T/C [53] was 6.9%, the viability, T/C [54] was 7.29% and the viability, T/C [55] was 9.54%. The viability, T/C [56] was 8.5%, the viability, T/C [57] was 7.09% and the viability, T/C [58] was 6.47%. For the same compound, the viability, T/C [59] was 5.53% and the viability, T/C [60] was 6.11%.
Work on `CC(C)c1c(-c2ccccc2)nc2c(C#N)c[nH]n2c1=O` + Cc1cncc(-c2nc(NCCc3c[nH]c4ccccc34)c3ncn(C(C)C)c3n2)c1 yielded an IC50 (second compound 0.1 µM) greater than 10000 nM, an IC50 (second compound 0.316 µM) greater than 10000 nM and an IC50 (second compound 1 µM) greater than 10000 nM. It also gave an IC50 (second compound 3.16 µM) greater than 10000 nM, an IC50 (second compound 10 µM) of less than 31.6 nM and a viability, T/C [31] of 115%. For the same compound, the viability, T/C [32] was 121%, the viability, T/C [33] was 112% and the viability, T/C [34] was 123%. The viability, T/C [35] was 113%, the viability, T/C [36] was 132% and the viability, T/C [37] was 120%. It also gave a viability, T/C [38] of 118%, a viability, T/C [39] of 118% and a viability, T/C [40] of 124%. It also gave a viability, T/C [41] of 115%, a viability, T/C [42] of 104% and a viability, T/C [43] of 114%. The viability, T/C [44] was 107%, the viability, T/C [45] was 114% and the viability, T/C [46] was 108%. For the same compound, the viability, T/C [47] was 116%, the viability, T/C [48] was 112% and the viability, T/C [49] was 82.9%. It also gave a viability, T/C [50] of 71.8%, a viability, T/C [51] of 78.2% and a viability, T/C [52] of 78%. It also gave a viability, T/C [53] of 67.2%, a viability, T/C [54] of 76.1% and a viability, T/C [55] of 7.79%. It also gave a viability, T/C [56] of 5.72%, a viability, T/C [57] of 9.94% and a viability, T/C [58] of 8.21%. For the same compound, the viability, T/C [59] was 8.12% and the viability, T/C [60] was 9.28%.
